According to patent US12577206B2 (BRISTOL-MYERS SQUIBB COMPANY, priority 2020, dated 2026):

How the values were obtained:
human FPR1 = molecular target: T1, human FPR1 (Homo sapiens, UniProt P21462); assay: FPR1 cyclic adenosine monophosphate (cAMP) assay; assay type: cell-based; details: CHO cells overexpressing human FPR1; forskolin 10 μM; inhibition of cAMP production; HTRF; read-out: hFPR1 cAMP2 EC50
T1 sequence (P21462 1-350): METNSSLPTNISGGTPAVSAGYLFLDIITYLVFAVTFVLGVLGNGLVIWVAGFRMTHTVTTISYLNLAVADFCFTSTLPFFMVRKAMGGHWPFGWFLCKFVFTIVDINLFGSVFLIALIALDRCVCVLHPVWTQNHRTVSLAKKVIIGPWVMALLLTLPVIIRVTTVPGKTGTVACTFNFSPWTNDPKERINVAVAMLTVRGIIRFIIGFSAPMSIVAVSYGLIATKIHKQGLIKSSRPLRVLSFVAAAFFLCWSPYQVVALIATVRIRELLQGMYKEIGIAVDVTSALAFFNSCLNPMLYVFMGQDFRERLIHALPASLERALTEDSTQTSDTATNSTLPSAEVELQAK
In short: (§1)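 Gi-coupled activity is read as suppression of forskolin-stimulated cAMP (10 μM final for FPR1, 5 μM final for FPR2; IBMX 200 μM final) in recombinant CHO cells, 30 min incubation at rt, HTRF detection.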

human FPR2 = molecular target: T2, human FPR2 (Homo sapiens, UniProt P25090); assay: FPR2 cyclic adenosine monophosphate (cAMP) assay; assay type: cell-based; details: CHO cells overexpressing human FPR2; forskolin 5 μM; inhibition of cAMP production; HTRF; read-out: hFPR2 cAMP2 EC50
T2 sequence (P25090 1-351): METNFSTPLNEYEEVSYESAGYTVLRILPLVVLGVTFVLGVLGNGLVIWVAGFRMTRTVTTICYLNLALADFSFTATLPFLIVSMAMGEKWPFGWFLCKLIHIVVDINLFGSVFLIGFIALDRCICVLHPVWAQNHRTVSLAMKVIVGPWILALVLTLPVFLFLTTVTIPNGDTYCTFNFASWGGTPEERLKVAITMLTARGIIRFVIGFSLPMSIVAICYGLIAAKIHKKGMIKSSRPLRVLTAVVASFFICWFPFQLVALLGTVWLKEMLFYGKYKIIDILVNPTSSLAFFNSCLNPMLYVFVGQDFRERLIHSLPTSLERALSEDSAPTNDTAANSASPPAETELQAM
In short: as §1

Row | EC50 (human FPR1) | EC50 (human FPR2) | Compound
1 | > 10000 nM | 4 nM | COc1cc(F)c(-c2c(NC(=O)c3ccc(OC(F)F)cc3)c(=O)n(-c3nccc(C)c3C#N)n2C)c(F)c1 [Example 201, N-[2-(3-cyano-4-methylpyridin-2-yl)-5-(2,6-difluoro-4-methoxyphenyl)-1-methyl-3-oxo-2,3-dihydro-1H-pyrazol-4-yl]-4-(difluoromethoxy)benzamide]
2 | 2500 nM | 32 nM | COc1cc(F)c(-c2c(NC(=O)c3ccc(OC(F)F)cc3)c(=O)n(-c3nc(N4CCN(C)CC4)ccc3C#N)n2C)c(F)c1 [Example 202, N-{2-[3-cyano-6-(4-methylpiperazin-1-yl)pyridin-2-yl]-5-(2,6-difluoro-4-methoxyphenyl)-1-methyl-3-oxo-2,3-dihydro-1H-pyrazol-4-yl}-4-(difluoromethoxy)benzamide]
3 | > 10000 nM | 5 nM | COc1cc(F)c(-c2c(NC(=O)c3ccc(OC(F)F)cc3)c(=O)n(-c3nc(Cl)ccc3N3CC(C)(O)C3)n2C)c(F)c1 [Example 203, N-{2-[6-chloro-3-(3-hydroxy-3-methylazetidin-1-yl)pyridin-2-yl]-5-(2,6-difluoro-4-methoxyphenyl)-1-methyl-3-oxo-2,3-dihydro-1H-pyrazol-4-yl}-4-(difluoromethoxy)benzamide]
4 | > 10000 nM | 15 nM | COc1cc(F)c(-c2c(NC(=O)c3ccc(OC(F)F)cc3)c(=O)n(-c3cccc(CN(C)C)n3)n2C)c(F)c1 [Example 204, N-[5-(2,6-difluoro-4-methoxyphenyl)-2-{6-[(dimethylamino)methyl]pyridin-2-yl}-1-methyl-3-oxo-2,3-dihydro-1H-pyrazol-4-yl]-4-(difluoromethoxy)benzamide]
5 | > 10000 nM | 25 nM | COc1cc(F)c(-c2c(NC(=O)c3ccc(OC(F)F)cc3)c(=O)n(-c3cccc(CN4CCN(C)CC4)n3)n2C)c(F)c1 [Example 205, N-[5-(2,6-difluoro-4-methoxyphenyl)-1-methyl-2-{6-[(4-methylpiperazin-1-yl)methyl]pyridin-2-yl}-3-oxo-2,3-dihydro-1H-pyrazol-4-yl]-4-(difluoromethoxy)benzamide]
6 | > 5000 nM | 44 nM | COc1cc(F)c(-c2c(NC(=O)c3ccc(OC(F)F)cc3)c(=O)n(-c3cccc(N4CCN(CCS(C)(=O)=O)CC4)n3)n2C)c(F)c1 [Example 206, N-[5-(2,6-difluoro-4-methoxyphenyl)-2-{6-[4-(2-methanesulfonylethyl)piperazin-1-yl]pyridin-2-yl}-1-methyl-3-oxo-2,3-dihydro-1H-pyrazol-4-yl]-4-(difluoromethoxy)benzamide]
7 | 140 nM | 3 nM | COc1cc(F)c(-c2c(NC(=O)c3ccc(OC(F)F)cc3)c(=O)n(-c3cccc(N4CCN(CC5CC5)CC4)n3)n2C)c(F)c1 [Example 207, N-(2-{6-[4-(cyclopropylmethyl)piperazin-1-yl]pyridin-2-yl}-5-(2,6-difluoro-4-methoxyphenyl)-1-methyl-3-oxo-2,3-dihydro-1H-pyrazol-4-yl)-4-(difluoromethoxy)benzamide]
8 | > 10000 nM | 3 nM | COc1cc(F)c(-c2c(NC(=O)c3ccc(OC(F)F)cc3)c(=O)n(-c3cccc(N4CCN(CCCO)CC4)n3)n2C)c(F)c1 [Example 208, N-[5-(2,6-difluoro-4-methoxyphenyl)-2-{6-[4-(3-hydroxypropyl)piperazin-1-yl]pyridin-2-yl}-1-methyl-3-oxo-2,3-dihydro-1H-pyrazol 4-yl]-4-(difluoromethoxy)benzamide]
9 | > 10000 nM | 3 nM | COc1cc(F)c(-c2c(NC(=O)c3ccc(OC(F)F)cc3)c(=O)n(-c3nc(Cl)ccc3N(C)C)n2C)c(F)c1 [Example 209, N-{2-[6-chloro-3-(dimethylamino)pyridin-2-yl]-5-(2,6-difluoro-4-methoxyphenyl)-1-methyl-3-oxo-2,3-dihydro-1H-pyrazol-4-yl}-4-(difluoromethoxy)benzamide]
10 | 4800 nM | 11 nM | COc1cc(F)c(-c2c(NC(=O)c3ccc(OC(F)F)cc3)c(=O)n(-c3nc(N4CC(C)(O)C4)ccc3F)n2C)c(F)c1 [Example 210, N-[5-(2,6-difluoro-4-methoxyphenyl)-2-[3-fluoro-6-(3-hydroxy-3-methylazetidin-1-yl)pyridin-2-yl]-1-methyl-3-oxo-2,3-dihydro-1H-pyrazol-4-yl]-4-(difluoromethoxy)benzamide]
11 | > 10000 nM | 12 nM | COc1cc(F)c(-c2c(NC(=O)c3ccc(OC(F)F)cc3)c(=O)n(-c3ncccc3N3CC(C)(O)C3)n2C)c(F)c1 [Example 211, N-[5-(2,6-difluoro-4-methoxyphenyl)-2-[3-(3-hydroxy-3-methylazetidin-1-yl)pyridin-2-yl]-1-methyl-3-oxo-2,3-dihydro-1H-pyrazol-4-yl]-4-(difluoromethoxy)benzamide]
12 | > 10000 nM | 9 nM | COCCN1CCN(c2cccc(-n3c(=O)c(NC(=O)c4ccc(OC(F)F)cc4)c(-c4c(F)cc(OC)cc4F)n3C)n2)CC1 [Example 212, N-[5-(2,6-difluoro-4-methoxyphenyl)-2-{6-[4-(2-methoxyethyl)piperazin-1-yl]pyridin-2-yl}-1-methyl-3-oxo-2,3-dihydro-1H-pyrazol-4-yl]-4-(difluoromethoxy)benzamide]
13 | > 10000 nM | 16 nM | COc1cc(F)c(-c2c(NC(=O)c3ccc(OC(F)F)cc3)c(=O)n(-c3cccc(N4CCN(S(C)(=O)=O)CC4)n3)n2C)c(F)c1 [Example 213, N-[5-(2,6-difluoro-4-methoxyphenyl)-2-[6-(4-methanesulfonylpiperazin-1-yl)pyridin-2-yl]-1-methyl-3-oxo-2,3-dihydro-1H-pyrazol-4-yl]-4-(difluoromethoxy)benzamide]
14 | 150 nM | 4 nM | COc1cc(F)c(-c2c(NC(=O)c3ccc(OC(F)F)cc3)c(=O)n(-c3nc(N4CCNC(=O)C4)ccc3C(F)(F)F)n2C)c(F)c1 [Example 214, N-[5-(2,6-difluoro-4-methoxyphenyl)-1-methyl-3-oxo-2-[6-(3-oxopiperazin-1-yl)-3-(trifluoromethyl)pyridin-2-yl]-2,3-dihydro-1H-pyrazol-4-yl]-4-(difluoromethoxy)benzamide]
15 | > 10000 nM | 5 nM | CNc1ccc(Cl)nc1-n1c(=O)c(NC(=O)c2ccc(OC(F)F)cc2)c(-c2c(F)cc(OC)cc2F)n1C [Example 215, N-{2-[6-chloro-3-(methylamino)pyridin-2-yl]-5-(2,6-difluoro-4-methoxyphenyl)-1-methyl-3-oxo-2,3-dihydro-1H-pyrazol-4-yl}-4-(difluoromethoxy)benzamide]
16 | > 10000 nM | 6 nM | COc1cc(F)c(-c2c(NC(=O)c3ccc(OC(F)F)cc3)c(=O)n(-c3nc(N4CCC[C@H]4C(N)=O)ccc3C(F)(F)F)n2C)c(F)c1 [Example 216, (2S)-1-{6-[3-(2,6-difluoro-4-methoxyphenyl)-4-[4-(difluoromethoxy)benzamido]-2-methyl-5-oxo-2,5-dihydro-1H-pyrazol-1-yl]-5-(trifluoromethyl)pyridin-2-yl}pyrrolidine-2-carboxamide]
17 | > 10000 nM | 6 nM | COc1cc(F)c(-c2c(NC(=O)c3ccc(OC(F)F)cc3)c(=O)n(-c3nc(Cl)ccc3N3CCN(C)CC3)n2C)c(F)c1 [Example 217, N-{2-[6-chloro-3-(4-methylpiperazin-1-yl)pyridin-2-yl]-5-(2,6-difluoro-4-methoxyphenyl)-1-methyl-3-oxo-2,3-dihydro-1H-pyrazol-4-yl}-4-(difluoromethoxy)benzamide]
18 | 1500 nM | 21 nM | COc1cc(F)c(-c2c(NC(=O)c3ccc(OC(F)F)cc3)c(=O)n(-c3cccc(N4CC(C)(C)C4)n3)n2C)c(F)c1 [Example 218, N-[5-(2,6-difluoro-4-methoxyphenyl)-2-[6-(3,3-dimethylazetidin-1-yl)pyridin-2-yl]-1-methyl-3-oxo-2,3-dihydro-1H-pyrazol-4-yl]-4-(difluoromethoxy)benzamide]
19 | 3200 nM | 10 nM | COc1cc(F)c(-c2c(NC(=O)c3ccc(OC(F)F)cc3)c(=O)n(-c3nc(N4CCN(C)CC4)ccc3F)n2C)c(F)c1 [Example 219, N-[5-(2,6-difluoro-4-methoxyphenyl)-2-[3-fluoro-6-(4-methylpiperazin-1-yl)pyridin-2-yl]-1-methyl-3-oxo-2,3-dihydro-1H-pyrazol-4-yl]-4-(difluoromethoxy)benzamide]
